# Measured values: patent publication US8012943B2, “Antibacterial agents” (Optimer Pharmaceuticals, Inc., priority 2003, dated 2011)
# Read-outs that look alike come from different tables or passages of the source.
# Tests used:
# Test in all cases: MIC, NCCLS broth microdilution
# S. aureus MRSA 33591 = format: cell-based; details: Staphylococcus aureus, Table 1
# Procedure: (§1) Antibacterial activity of the novel Formula 1 and Formula 2 compounds and their pharmaceutically acceptable addition salts with organic and inorganic acids was determined against a series of microorganisms from the American Type Culture Collection (ATCC) and clinical Streptococcus sp isolates. The ATCC strains included: Staphylococcus aureus, Enterococcus faecium, Klebsiella pneumoniae, Escherichia coli, Salmonella typhimurium, Streptococcus pneumoniae, Streptococcus pyogenes, and Haemophilus influenzae. The clinical strains included macrolide resistant Streptococcus sp. with either Erm or MefA resistance mechanisms. The clinical isolates were identified using the API biochemical identification system (BioMerieux).
# (§2) Antimicrobial susceptibility testing was performed according to recommendations by the National Committee for Clinical Laboratory Standards (NCCLS M100-S12, M7-A5). Briefly, two fold dilutions of compounds were made in microtiter plates. Each well of the microtiter plate was inoculated with test microorganisms at a final density 5×10^5 colony forming units (cfu)/mL. The microtiter plates were incubated at 35° C. under aerobic conditions, except for H. influenzae and S. pyogenes which were incubated at 5% CO2. The minimal inhibitory concentration (MIC) was defined as the lowest concentration of compound that inhibited growth. The results of represented examples of this invention on standard test microorganisms and clinical isolates in comparison with azithromycin and telithromycin are shown in Table 1 and Table 2.
# E. faecium ATCC 19434 = format: cell-based; details: Enterococcus faecium, ATCC19434, Table 1
# Procedure: as §1, §2
# E. Coli ATCC 25922 = format: cell-based; details: Escherichia coli, ATCC25922, Table 1
# Procedure: as §1, §2
# K. Pneumonia 13883 = format: cell-based; details: Klebsiella pneumoniae, Table 1
# Procedure: as §1, §2
# S. pyogenes ATCC 19615 = format: cell-based; details: Streptococcus pyogenes, ATCC19615, 5% CO2, Table 1
# Procedure: as §1, §2
# [1] = test system: S. aureus ATCC 29213 (MSSA) MLS-S; format: cell-based; details: Staphylococcus aureus, Table 1
# Procedure: as §1, §2
# [2] = test system: S. Typhimurium ATCC 14028; format: cell-based; details: Salmonella enterica, Table 1
# Procedure: as §1
# as §2, with “growth.” for “growth. The results of represented examples of this invention on standard test microorganisms and clinical isolates in comparison with azithromycin and telithromycin are shown in Table 1 and Table 2.”
# H. influenzae ATCC 49247 = format: cell-based, Haemophilus influenzae; details: Haemophilus influenzae, ATCC49247, H. influenzae ATCC 49247, 5% CO2, read-out: MIC
# Procedure: as §1, §2
# S. pneumoniae 303(ErmB) = format: cell-based, Streptococcus pneumoniae
# Procedure: as §1, §2
# S. pneumoniae 163(MefA) = format: cell-based, Streptococcus pneumoniae
# Procedure: as §1, §2
# S. pyogenes 1850 = format: cell-based; details: Streptococcus pyogenes, Table 2
# Procedure: as §1, §2
# S. pyogenes 3029 = format: cell-based; details: Streptococcus pyogenes, Table 2
# Procedure: as §1, §2
# S. pneumoniae 5032 = format: cell-based; details: Streptococcus pneumoniae, Table 2
# Procedure: as §1, §2
# S. pyogenes 3262 = format: cell-based; details: Streptococcus pyogenes, Table 2
# Procedure: as §1, §2
# S. pyogenes 1721 = format: cell-based; details: Streptococcus pyogenes, Table 2
# Procedure: as §1, §2
# [3] = test system: S. pneumoniae 3773 (Erm B); format: cell-based, Streptococcus pneumoniae; details: Streptococcus pneumoniae, Table 2, read-out: MIC
# Procedure: as §1, §2
# S. pneumoniae ATCC 49619 = format: cell-based, Streptococcus pneumoniae
# Procedure: as §1, §2
# [4] = Streptococcus pneumoniae, S. pneumoniae 303(ErmB), Table 1, read-out: MIC
# [5] = Streptococcus pneumoniae, S. pneumoniae 163(MefA), Table 1, read-out: MIC
# [6] = Streptococcus pneumoniae, S. pneumoniae ErmB 303, Table 2, read-out: MIC
# [7] = Streptococcus pneumoniae, ATCC49619, Table 2, read-out: MIC
# [8] = Streptococcus pneumoniae, S. pneumoniae 163 (Mef A), Table 2, read-out: MIC
MIC (S. aureus MRSA 33591),MIC (E. faecium ATCC 19434),MIC (E. Coli ATCC 25922),MIC (K. Pneumonia 13883),MIC (S. pyogenes ATCC 19615),MIC [1],MIC [2],MIC (H. influenzae ATCC 49247; Table 1),MIC (S. pneumoniae 303(ErmB); [4]),MIC (S. pneumoniae 163(MefA); [5]),MIC (S. pyogenes 1850),MIC (S. pyogenes 3029),MIC (S. pneumoniae 5032),MIC (S. pyogenes 3262),MIC (S. pyogenes 1721),MIC (H. influenzae ATCC 49247; Table 2),MIC (S. pneumoniae 303(ErmB); [6]),MIC [3],MIC (S. pneumoniae ATCC 49619; [7]),MIC (S. pneumoniae 163(MefA); [8]),Compound,other results
> 64 µg/mL,4 µg/mL,> 64 µg/mL,> 64 µg/mL,32 µg/mL,4 µg/mL,> 64 µg/mL,> 64 µg/mL,0.25 µg/mL,≤ 0.125 µg/mL,–,–,–,–,–,–,–,–,–,–,CC[C@H]1OC(=O)[C@H](C)C(=O)[C@H](C)[C@@H](OC(=O)C2CN(C(=O)OC(C)(C)C)C(C)(C)O2)[C@@](C)(OC)C[C@@H](C)C(=O)[C@H](C)[C@H]2N(CCCCn3cnc(-c4cccnc4)c3)C(=O)O[C@]12C (stereo partly drawn) [OP-1086],–
–,–,–,–,–,–,–,–,–,–,0.25 µg/mL,1 µg/mL,1 µg/mL,4 µg/mL,4 µg/mL,1 µg/mL,≤ 0.125 µg/mL,0.5 µg/mL,≤ 0.125 µg/mL,≤ 0.125 µg/mL,"CC[C@H]1OC(=O)[C@@](C)(F)C(=O)[C@H](C)[C@@H](OC2OC(COC(C)=O)CC(N(C)C)C2O)[C@@](C)(OC)C[C@@H](C)C(=O)[C@H](C)[C@H]2N(CCCCn3cc(-c4cccc(N)n4)nn3)C(=O)O[C@]12C (stereo partly drawn) [OP-1356, 11-N-{4-[4-(6-Amino-pyridin-2-yl)-[1,2,3]triazol-1-yl]-butyl}-5-(3-dimethylamine-4-deoxy-6-O-acetyl-glucopyranosyl)-3-oxo-2-fluoro-erythronolide A,-11,12-cyclic carbamate]",–
–,–,–,–,–,–,–,–,–,–,0.25 µg/mL,1 µg/mL,1 µg/mL,1 µg/mL,2 µg/mL,4 µg/mL,≤ 0.125 µg/mL,1 µg/mL,≤ 0.125 µg/mL,≤ 0.125 µg/mL,"CC[C@H]1OC(=O)[C@@](C)(F)C(=O)[C@H](C)[C@@H](OC2OC(C)CC(N(C)C)C2O)[C@@](C)(OC)C[C@@H](C)C(=O)[C@H](C)[C@H]2N(CCCCn3cc(-c4cccc(N)n4)nn3)C(=O)O[C@]12C (stereo partly drawn) [OP-1357, 11-N-{4-[4-(6-Amino-pyridin-2-yl)-[1,2,3]triazol-1-yl]-butyl}-5-desosaminyl-3-oxo-2-fluoro-erythronolide A,-11,12-cyclic carbamate]",–
> 64 µg/mL,≤ 0.125 µg/mL,16 µg/mL,16 µg/mL,≤ 0.125 µg/mL,≤ 0.125 µg/mL,4 µg/mL,2 µg/mL,≤ 0.125 µg/mL,≤ 0.125 µg/mL,8 µg/mL,16 µg/mL,1 µg/mL,32 µg/mL,64 µg/mL,4 µg/mL,–,1 µg/mL,–,–,"CC[C@H]1OC(=O)[C@H](C)C(=O)[C@H](C)[C@@H](O[C@@H]2O[C@H](C)C[C@H](N(C)C)[C@H]2O)[C@](C)(OC)C[C@@H](C)C(=O)[C@H](C)[C@H]2N(CCCCn3cnc(-c4cccnc4)c3)C(=O)O[C@]12C [Telithromycin, reference compound]","MIC (S. pneumoniae 303(ErmB); S. pneumoniae ErmB 303, Table 2): <=0.125 mcg/mL; MIC (S. pneumoniae ATCC 49619; Streptococcus pneumoniae, ATCC49619, Table 1, read-out: MIC): ≤ 0.125 µg/mL; MIC (S. pneumoniae ATCC 49619; Table 2): <=0.125 mcg/mL; MIC (S. pneumoniae 163(MefA); S. pneumoniae 163 (Mef A), Table 2): <=0.125 mcg/mL"
